Source: patent US20190031717A1, “MULTI-FUNCTIONAL FUSION POLYPEPTIDE, PREPARATION METHOD THEREOF, AND APPLICATION OF SAME” (NANJING ANJI BIOLOGICAL TECHNOLOGY CO., LTD, priority 2016, published 2019)

How the values were obtained:
pneumonia fungi = test: Mouse pneumonia model, fungal; assay type: in vivo, BALB/C mice; design: concentration or dose not given beside the values; details: mean ± SD
Protocol: (§1) The mouse pneumonia model was successfully established by the nose-drop method. To build the mouse pneumonia model, BALB/C mice with a body mass of 16-22 g were selected and anesthetized pneumonia chain was prepared after anesthesia with ether on day 0, day 1, and day 2. Staphylococcal fluid, adenovirus concentrate, Mycoplasma pneumoniae, Chlamydia pneumoniae, protozoa, and pneumonia fungi were slowly dripped into the nasal cavity of the mice, so that they enter the tracheobronchial. During the operation process, care was exercised to prevent bacterial fluid from flowing into the esophagus, which leads to inactivation the bacterial fluid. After successful model establishment, the polypeptides of the present invention were administered, and the results were shown in Table 5. […] The results were expressed in average value±standard deviation.

[1] = tested on: Non-small cell lung cancer; test: MTT assay, lung cancer tumor cells; assay type: cell-based, human; design: concentration or dose not given beside the values; details: 48 h, mean ± SD
Protocol: (§2) The inhibition of the growth of human lung cancer tumor cells by the polypeptide of the present invention was examined by MTT assay. The lung cancer tumor cells were cultured in a 37° C., 5% (volume fraction) CO2 incubator to a density of 90% or more, and collected by trypsinization. The cells were resuspended in the culture medium and counted under a microscope to adjust the cell concentration to 2.0×10^4 cells/mL, the cell suspension was inoculated into a 96-well plate at 100 μL per well, and cultured overnight at 37° C. in a 5% (volume fraction) CO2 incubator. After the cells were completely adhered, the polypeptide of the present invention was added as a drug-administered group, and a culture solution containing no drug was used as a blank control group, and the culture solution was diluted to each predetermined concentration. Each dilution was separately added to a 96-well plate at 100 μL per well and incubated for 48 h at 37° C. in a 5% (volume fraction) CO2 incubator. 20 μL of 5 mg/mL MTT was added to each well of a 96-well plate, and incubation was continued for 4 hours. The medium was aspirated, and the cells were dissolved in 100 μL of DMSO per well. The absorbance was measured by a microplate reader at a detection wavelength of 570 nm and a reference wavelength of 630 nm, and the growth inhibition rate was calculated as follows: tumor growth inhibition rate (%)=(1−administered group absorbance value/unadministered group absorbance value)×100%, and the experiment was repeated 3 times independently. The results obtained by the test were expressed as mean±standard deviation. The results in Table 6 indicate that the polypeptides of the present invention have a good inhibitory effect on proliferation of a variety of human lung cancer tumors (FIG. 5).

Small Cell Lung Cancer = test: MTT assay, lung cancer tumor cells; assay type: cell-based, human; design: concentration or dose not given beside the values; details: 48 h, mean ± SD
Protocol: as §2

Squamous cell carcinoma = test: MTT assay, lung cancer tumor cells; assay type: cell-based, human; design: concentration or dose not given beside the values; details: 48 h, mean ± SD
Protocol: as §2

Adenosquamous carcinoma = test: MTT assay, lung cancer tumor cells; assay type: cell-based, human; design: concentration or dose not given beside the values; details: 48 h, mean ± SD
Protocol: as §2

Adenocarcinoma = test: MTT assay, lung cancer tumor cells; assay type: cell-based, human; design: concentration or dose not given beside the values; details: 48 h, mean ± SD
Protocol: as §2

Large cell lung cancer = test: MTT assay, lung cancer tumor cells; assay type: cell-based, human; design: concentration or dose not given beside the values; details: 48 h, mean ± SD
Protocol: as §2

[2] = tested on: Pneumonia caused by lung infection; test: Mouse pneumonia model, pneumonia caused by lung infection; assay type: in vivo, BALB/C mice; design: concentration or dose not given beside the values; details: mean ± SD
Protocol: as §1

protozoa = test: Mouse pneumonia model, protozoal; assay type: in vivo, BALB/C mice; design: concentration or dose not given beside the values; details: mean ± SD
Protocol: as §1

Mycoplasma pneumoniae = test: Mouse pneumonia model, mycoplasma; assay type: in vivo, BALB/C mice; design: concentration or dose not given beside the values; details: mean ± SD
Protocol: as §1

adenovirus concentrate = test: Mouse pneumonia model, viral; assay type: in vivo, BALB/C mice; details: mean ± SD
Protocol: as §1

Colorectal cancer = test: MTT assay, tumor cells; assay type: cell-based, human; design: concentration or dose not given beside the values; details: 48 hours, mean ± SD
How it was run: (§3)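 Human tumor cells plated at 2.0×10^4 cells/mL (100 μL/well) overnight, then exposed to polypeptides for 48 h at 37 °C, 5% CO2. MTT 4 h, DMSO solubilization, absorbance 570/630 nm; growth inhibition % versus drug-free control, mean±SD of 3 independent experiments.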

Thyroid cancer = test: MTT assay, tumor cells; assay type: cell-based, human; design: concentration or dose not given beside the values; details: 48 hours, mean ± SD
How it was run: as §3

Esophageal cancer = test: MTT assay, tumor cells; assay type: cell-based, human; design: concentration or dose not given beside the values; details: 48 hours, mean ± SD
How it was run: as §3

Breast cancer = test: MTT assay, tumor cells; assay type: cell-based, human; design: concentration or dose not given beside the values; details: 48 hours, mean ± SD
How it was run: as §3

Hemangioma = test: MTT assay, tumor cells; assay type: cell-based, human; design: concentration or dose not given beside the values; details: 48 hours, mean ± SD
How it was run: as §3

Prostate cancer = test: MTT assay, tumor cells; assay type: cell-based, human; design: concentration or dose not given beside the values; details: 48 hours, mean ± SD
How it was run: as §3

Kidney cancer = test: MTT assay, tumor cells; assay type: cell-based, human; design: concentration or dose not given beside the values; details: 48 hours, mean ± SD
How it was run: as §3

Uterine cancer = test: MTT assay, tumor cells; assay type: cell-based, human; design: concentration or dose not given beside the values; details: 48 hours, mean ± SD
How it was run: as §3

Brain tumor = test: MTT assay, tumor cells; assay type: cell-based, human; design: concentration or dose not given beside the values; details: 48 hours, mean ± SD
How it was run: as §3

Substance	Inhibitory Effects on Various Pulmonary Infections (pneumonia fungi) [%]	tumor growth inhibition rate, MTT Assay [1] [%]	tumor growth inhibition rate, MTT Assay (Small Cell Lung Cancer) [%]	tumor growth inhibition rate, MTT Assay (Squamous cell carcinoma) [%]	tumor growth inhibition rate, MTT Assay (Adenosquamous carcinoma) [%]	tumor growth inhibition rate, MTT Assay (Adenocarcinoma) [%]	tumor growth inhibition rate, MTT Assay (Large cell lung cancer) [%]	Inhibitory Effects on Various Pulmonary Infections [2] [%]	Inhibitory Effects on Various Pulmonary Infections (protozoa) [%]	Inhibitory Effects on Various Pulmonary Infections (Mycoplasma pneumoniae) [%]	Inhibitory Effects on Various Pulmonary Infections (adenovirus concentrate) [%]	tumor growth inhibition rate, MTT Assay (Colorectal cancer) [%]	tumor growth inhibition rate, MTT Assay (Thyroid cancer) [%]	tumor growth inhibition rate, MTT Assay (Esophageal cancer) [%]	tumor growth inhibition rate, MTT Assay (Breast cancer) [%]	tumor growth inhibition rate, MTT Assay (Hemangioma) [%]	tumor growth inhibition rate, MTT Assay (Prostate cancer) [%]	tumor growth inhibition rate, MTT Assay (Kidney cancer) [%]	tumor growth inhibition rate, MTT Assay (Uterine cancer) [%]	tumor growth inhibition rate, MTT Assay (Brain tumor) [%]
Pro-(D-Pyr)-(D-Cys)-Bip-Arg-Gly-Glu-Gly-Gly-Gly-Gly-Arg-Gly-Asp-Gly-Gly-Gly-Gly-Ile-Val-Arg-Arg-Ala-Asp-Arg-Ala-Ala-Val-Pro [Polypeptide VI]	52.69 ± 14.80	83.25 ± 17.67	63.23 ± 12.96	59.67 ± 9.56	53.80 ± 12.33	78.80 ± 13.47	79.04 ± 14.36	46.55 ± 16.44	55.50 ± 18.21	35.87 ± 12.71	52.54 ± 13.88	76.26 ± 17.30	56.04 ± 12.71	58.88 ± 13.36	81.92 ± 18.58	91.30 ± 20.71	72.33 ± 19.68	53.64 ± 15.44	69.77 ± 19.09	61.20 ± 13.88
Pro-(D-Pyr)-(D-Cys)-Bip-Arg-Gly-Glu-Gly-Gly-Gly-Gly-Ile-Val-Arg-Arg-Ala-Asp-Arg-Ala-Ala-Val-Pro-Gly-Gly-Gly-Gly-Arg-Gly-Asp [Polypeptide I]	43.91 ± 15.11	69.38 ± 18.03	52.70 ± 13.22	49.73 ± 9.76	44.84 ± 12.58	65.67 ± 13.74	65.87 ± 14.65	38.79 ± 16.78	46.25 ± 18.59	29.89 ± 12.97	43.78 ± 14.17	63.55 ± 17.65	46.70 ± 12.97	49.07 ± 13.63	68.27 ± 18.96	76.08 ± 21.13	60.28 ± 20.08	44.70 ± 15.75	58.14 ± 19.48	51.00 ± 14.17
